Measured values reported in patent US9796711B2, “Substituted pyrazolo[3,4-b]pyridin-6-carboxylic acids and method of use” (AbbVie S.àr.l., priority 2015, dated 2017).

How the values were obtained:
ΔF508-CFTR [1] = molecular target: T1, ΔF508-CFTR (Homo sapiens, UniProt P13569, DEL508-508); test: CFTR cell surface levels using HRP-tagged ΔF508-CFTR expressing CFBE cells, in the presence of a co-corrector; assay type: cell-based; details: HRP-tagged ΔF508-CFTR expressing CFBE cells, in the presence of 3 μM co-corrector; for EC50: read-out: EC50
T1 construct: host or cells: CFBE41o-, doxycycline-inducible
T1 sequence (P13569 with tags, fused parts or gaps DEL508-508): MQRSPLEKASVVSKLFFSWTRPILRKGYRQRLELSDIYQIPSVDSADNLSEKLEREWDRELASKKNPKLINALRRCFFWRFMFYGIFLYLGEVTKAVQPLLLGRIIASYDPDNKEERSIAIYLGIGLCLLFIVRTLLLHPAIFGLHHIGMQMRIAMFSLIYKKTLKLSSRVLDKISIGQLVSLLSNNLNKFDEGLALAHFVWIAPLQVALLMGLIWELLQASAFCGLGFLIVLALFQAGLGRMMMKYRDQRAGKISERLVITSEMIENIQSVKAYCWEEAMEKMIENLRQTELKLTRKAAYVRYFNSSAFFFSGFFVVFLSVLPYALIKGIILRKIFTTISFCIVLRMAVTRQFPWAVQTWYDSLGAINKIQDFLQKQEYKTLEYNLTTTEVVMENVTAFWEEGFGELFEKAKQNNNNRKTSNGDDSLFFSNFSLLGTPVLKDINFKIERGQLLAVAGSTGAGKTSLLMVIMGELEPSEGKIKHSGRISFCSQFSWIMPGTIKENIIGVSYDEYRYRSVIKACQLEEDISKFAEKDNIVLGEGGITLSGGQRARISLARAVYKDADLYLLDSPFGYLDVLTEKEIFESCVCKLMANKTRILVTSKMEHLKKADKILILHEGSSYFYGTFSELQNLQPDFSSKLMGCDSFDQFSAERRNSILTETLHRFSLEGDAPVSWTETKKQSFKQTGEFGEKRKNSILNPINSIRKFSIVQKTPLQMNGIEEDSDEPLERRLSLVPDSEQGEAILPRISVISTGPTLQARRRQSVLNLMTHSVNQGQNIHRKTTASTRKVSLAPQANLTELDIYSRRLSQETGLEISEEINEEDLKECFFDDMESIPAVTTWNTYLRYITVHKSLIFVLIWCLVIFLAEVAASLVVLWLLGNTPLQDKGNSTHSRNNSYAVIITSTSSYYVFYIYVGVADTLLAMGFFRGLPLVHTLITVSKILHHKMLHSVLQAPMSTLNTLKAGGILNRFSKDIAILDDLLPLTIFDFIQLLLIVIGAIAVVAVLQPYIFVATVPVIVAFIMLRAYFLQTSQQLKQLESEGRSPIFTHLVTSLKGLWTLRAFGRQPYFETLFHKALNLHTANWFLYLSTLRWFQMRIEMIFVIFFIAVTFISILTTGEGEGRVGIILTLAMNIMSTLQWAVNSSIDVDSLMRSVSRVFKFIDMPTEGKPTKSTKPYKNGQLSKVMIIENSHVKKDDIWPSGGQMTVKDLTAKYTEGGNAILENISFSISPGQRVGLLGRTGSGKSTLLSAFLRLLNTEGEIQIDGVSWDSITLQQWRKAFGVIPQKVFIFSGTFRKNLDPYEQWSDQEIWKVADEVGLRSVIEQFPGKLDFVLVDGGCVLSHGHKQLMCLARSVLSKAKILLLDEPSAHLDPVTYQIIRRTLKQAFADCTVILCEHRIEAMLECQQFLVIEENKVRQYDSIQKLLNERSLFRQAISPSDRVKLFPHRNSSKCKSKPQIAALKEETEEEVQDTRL
Summary of the method: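 Cells were seeded with 0.5 μg/mL doxycycline and held 68 h at 37 °C. Test compounds plus 3 μM co-corrector (final 0.1% DMSO) were then added for 20 h at 33 °C. Washed cells received HRP substrate, and luminescence was normalized between DMSO and 3 μM co-corrector controls.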

ΔF508-CFTR [2] = molecular target: T1, ΔF508-CFTR; test: CFTR cell surface levels using HRP-tagged ΔF508-CFTR expressing CFBE cells, intrinsic corrector capacity; assay type: cell-based; details: for EC50: read-out: EC50
Summary of the method: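 Here the cells express ΔF508-CFTR with horseradish peroxidase inserted in extracellular loop 4, so only rescued channel at the surface gives luminescent signal. Compounds act on their own, 20 h at the reduced temperature of 33 °C; values are percent activity relative to DMSO and a 3 μM corrector.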

[3] = HRP-tagged ΔF508-CFTR CFBE41o- cells, compounds alone (intrinsic corrector capacity), 20 hours at 33° C., positive control 3 μM corrector
[4] = HRP-tagged ΔF508-CFTR CFBE41o- cells, compounds alone (intrinsic corrector capacity), 20 hours at 33° C.
[5] = HRP-tagged ΔF508-CFTR expressing CFBE cells, intrinsic corrector capacity (no co-corrector), 33° C., 20 hours
[6] = HRP-tagged ΔF508-CFTR CFBE cells, compound alone (intrinsic corrector capacity), 20 hours at 33° C.

SMILES	% Activation (ΔF508-CFTR [1]) [%]	EC50 (ΔF508-CFTR [1]) [nM]	% Activation (ΔF508-CFTR [2]; [3]) [%]	EC50 (ΔF508-CFTR [2]; [4]) [nM]	% Activation (ΔF508-CFTR [2]; [5]) [%]	EC50 (ΔF508-CFTR [2]; [5]) [nM]	% Activation (ΔF508-CFTR [2]; [6]) [%]	EC50 (ΔF508-CFTR [2]; [6]) [nM]
CC(C)c1nn(C2CCCCC2)c2nc(C(=O)O)cc(-c3ccc(N(C)C4CCOC4)nc3)c12 (stereo not shown) [compound 276, 1-cyclohexyl-4-{6-[methyl(oxolan-3-yl)amino]pyridin-3-yl}-3-(propan-2-yl)-1H-pyrazolo[3,4-b]pyridine-6-carboxylic acid]	407.8	372	206.93	504	–	–	–	–
COCCN(C)c1ncc(-c2cc(C(=O)O)nc3c2c(C(C)C)nn3-c2cccc(N3CCOCC3)c2)cn1 [compound 230, 4-{2-[(2-methoxyethyl)(methyl)amino]pyrimidin-5-yl}-1-[3-(morpholin-4-yl)phenyl]-3-(propan-2-yl)-1H-pyrazolo[3,4-b]pyridine-6-carboxylic acid]	507.3	514	368.85	1490	–	–	–	–
COCC1CCN(c2cc(C(=O)O)nc3c2c(C(C)C)nn3CC2CCC2)CC1 [compound 547, 1-(cyclobutylmethyl)-4-[4-(methoxymethyl)piperidin-1-yl]-3-(propan-2-yl)-1H-pyrazolo[3,4-b]pyridine-6-carboxylic acid]	318.7	1880	–	–	120.7	3330	–	–
CC(C)c1nn(C2CCCCC2)c2nc(C(=O)O)cc(-c3ccc(N(C)C4CCOCC4)cc3)c12 [compound 254, 1-cyclohexyl-4-{4-[methyl(oxan-4-yl)amino]phenyl}-3-(propan-2-yl)-1H-pyrazolo[3,4-b]pyridine-6-carboxylic acid]	417.67	333	234.6	611	–	–	–	–
CN(c1ccc(-c2cc(C(=O)O)nc3c2c(C2CCC2)nn3-c2cccc(N3CCCC3)c2)cc1)C1CCOCC1 [compound 251, 3-cyclobutyl-4-{4-[methyl(oxan-4-yl)amino]phenyl}-1-[3-(pyrrolidin-1-yl)phenyl]-1H-pyrazolo[3,4-b]pyridine-6-carboxylic acid]	577.73	353	389.2	438	–	–	–	–
COC1CCCN(c2cc(C(=O)O)nc3c2c(C2CCC2)nn3-c2ccccc2)C1 (stereo not shown) [compound 468, 3-cyclobutyl-4-(3-methoxypiperidin-1-yl)-1-phenyl-1H-pyrazolo[3,4-b]pyridine-6-carboxylic acid]	297.2	371	–	–	120.3	618	–	–
CC(C)OC1CN(c2cc(C(=O)O)nc3c2c(C2CCC2)nn3-c2ccccc2)C1 [compound 573, 3-cyclobutyl-1-phenyl-4-{3-[(propan-2-yl)oxy]azetidin-1-yl}-1H-pyrazolo[3,4-b]pyridine-6-carboxylic acid]	376	299	–	–	149.7	974	–	–
CN(C)C[C@H](F)C1CCN(c2cc(C(=O)O)nc3c2c(C2CCC2)nn3-c2ccccc2)CC1 [compound 455, 3-cyclobutyl-4-{4-[(1R)-2-(dimethylamino)-1-fluoroethyl]piperidin-1-yl}-1-phenyl-1H-pyrazolo[3,4-b]pyridine-6-carboxylic acid]	421.5	452	–	–	288.4	1110	–	–
CC(C)c1nn(-c2cncc(N3CCOCC3)c2)c2nc(C(=O)O)cc(-c3ccc(N4CCOCC4)cc3)c12 [compound 211, 4-[4-(morpholin-4-yl)phenyl]-1-[5-(morpholin-4-yl)pyridin-3-yl]-3-(propan-2-yl)-1H-pyrazolo[3,4-b]pyridine-6-carboxylic acid]	289.75	1090	94.07	2170	–	–	–	–
CC(C)c1nn(-c2ccc(F)cc2)c2nc(C(=O)O)cc(N3CCN4CCC[C@@H]4C3)c12 [compound 770, 1-(4-fluorophenyl)-4-[(8aR)-hexahydropyrrolo[1,2-a]pyrazin-2(1H)-yl]-3-(propan-2-yl)-1H-pyrazolo[3,4-b]pyridine-6-carboxylic acid]	234.5	900	–	–	85.33	1670	–	–
CC(C)c1nn(-c2ccc(F)cc2)c2nc(C(=O)O)cc(N3CCN(C(=O)N(C)C)CC3)c12 [compound 774, 4-[4-(dimethylcarbamoyl)piperazin-1-yl]-1-(4-fluorophenyl)-3-(propan-2-yl)-1H-pyrazolo[3,4-b]pyridine-6-carboxylic acid]	375.6	1670	–	–	163	1670	–	–
O=C(O)c1cc(N2CCC(F)CC2)c2c(C3CCC3)nn(-c3ccccc3)c2n1 [compound 444, 3-cyclobutyl-4-(4-fluoropiperidin-1-yl)-1-phenyl-1H-pyrazolo[3,4-b]pyridine-6-carboxylic acid]	282.8	543	–	–	111.15	1110	–	–
Cc1nn(-c2ccccc2)c2nc(C(=O)O)cc(OC[C@@H](F)C3CCOCC3)c12 [compound 335, 4-[(2S)-2-fluoro-2-(oxan-4-yl)ethoxy]-3-methyl-I-phenyl-1H-pyrazolo[3,4-b]pyridine-6-carboxylic acid]	259.25	1380	100.33	1610	–	–	–	–
Cc1nn(-c2ccccc2)c2nc(C(=O)O)cc(-c3ccc(N4CCOC(C)(C)C4)cc3)c12 [compound 119, 4-[4-(2,2-dimethylmorpholin-4-yl)phenyl]-3-methyl-1-phenyl-1H-pyrazolo[3,4-b]pyridine-6-carboxylic acid]	413.2	624	207.25	915	–	–	–	–
N#CC1CCN(C2CCN(c3cc(C(=O)O)nc4c3c(C3CCC3)nn4-c3ccc(F)cc3)CC2)C1 (stereo not shown) [compound 870, 4-[4-(3-cyanopyrrolidin-1-yl)piperidin-1-yl]-3-cyclobutyl-1-(4-fluorophenyl)-1H-pyrazolo[3,4-b]pyridine-6-carboxylic acid]	611.45	171	–	–	304.4	1040	–	–
CC(C)c1nn(-c2cccc(C(F)(F)F)c2)c2nc(C(=O)O)cc(-c3ccc(N4CCC(C#N)CC4)cc3)c12 [compound 261, 4-[4-(4-cyanopiperidin-1-yl)phenyl]-3-(propan-2-yl)-1-[3-(trifluoromethyl)phenyl]-1H-pyrazolo[3,4-b]pyridine-6-carboxylic acid]	519.37	553	314.07	702	–	–	–	–
CN1CCC2(CC1)CCN(c1cc(C(=O)O)nc3c1c(C1CCC1)nn3-c1ccc(F)cc1)CC2 [compound 928, 3-cyclobutyl-1-(4-fluorophenyl)-4-(9-methyl-3,9-diazaspiro[5.5]undecan-3-yl)-1H-pyrazolo[3,4-b]pyridine-6-carboxylic acid]	362.2	2410	–	–	–	–	284.7	4030
COC(C)(C)C1CCN(c2cc(C(=O)O)nc3c2c(C2CCC2)nn3-c2ccccc2)CC1 [compound 605, 3-cyclobutyl-4-[4-(2-methoxypropan-2-yl)piperidin-1-yl]-1-phenyl-1H-pyrazolo[3,4-b]pyridine-6-carboxylic acid]	531.3	43.6	–	–	292.8	82.1	–	–
Cc1cccc(-n2nc(C(C)C)c3c(N4CCC(C#N)C4)cc(C(=O)O)nc32)c1 (stereo not shown) [compound 218, 4-(3-cyanopyrrolidin-1-yl)-1-(3-methylphenyl)-3-(propan-2-yl)-1H-pyrazolo[3,4-b]pyridine-6-carboxylic acid]	380.9	933	169.4	2310	–	–	–	–
Cc1nn(-c2ccccc2)c2nc(C(=O)O)cc(OCC3(F)CCCN(C4COC4)C3)c12 (stereo not shown) [compound 381, 4-{[3-fluoro-1-(oxetan-3-yl)piperidin-3-yl]methoxy}-3-methyl-1-phenyl-1H-pyrazolo[3,4-b]pyridine-6-carboxylic acid]	182.9	1670	17.695	5010	–	–	–	–
Cc1nn(-c2cccc(F)c2)c2nc(C(=O)O)cc(-c3ccc(N4CCOCC4)nc3)c12 [compound 101, 1-(3-fluorophenyl)-3-methyl-4[6-(morpholin-4-yl)pyridin-3-yl]-1H-pyrazolo[3,4-b]pyridine-6-carboxylic acid]	331.65	999	143.75	1610	–	–	–	–
N#CC1CCN(c2ccc(-c3cc(C(=O)O)nc4c3c(OC3CCNC3)nn4-c3ccccc3)cn2)CC1 (stereo not shown) [compound 550, 4-[6-(4-cyanopiperidin-1-yl)pyridin-3-yl]-1-phenyl-3-[(pyrrolidin-3-yl)oxy]-1H-pyrazolo[3,4-b]pyridine-6-carboxylic acid]	122.4	> 10000	–	–	4.775	> 10000	–	–
